Experiment: Relative oral bioavailability (FRel experiment) in Wistar rats
Assay type: in vivo
Method: The relative bioavailability was determined by studies in Wistar rats.
Compound A was firstly administered orally in the form of a solution. For this purpose, the active ingredient was dissolved in a mixture of 80% polyethylene glycol having an average molecular weight of 400 (PEG400) and 20% water. The active ingredient solution is the reference point for determining the relative bioavailability (formulation A1).
Compound A was also administered orally in the form of a tylose suspension (formulation A2).
Compound B was likewise administered orally in the form of a tylose suspension (formulation B).
To prepare a 0.5% aqueous tylose suspension (w/v), tylose was stirred and swelled for about 12 hours in pure water, whereupon a viscous mixture was formed. Compound A and compound B were each ground into the viscous mixture, whereupon the corresponding tylose suspensions were formed (formulation A2 and formulation B).
FIGS. 1a, 1b and 1c show the plasma concentrations of the active ingredient 3-(2-{[4-(trifluoromethoxy)phenyl]amino}-1-[(1R,5R)-3,3,5-trimethylcyclohexyl]-1H-benzimidazol-5-yl)propanoic acid (active ingredient API) after oral administration of compound A in the form of a solution (formulation A1, FIG. 1a), after oral administration of compound A in the form of a suspension (formulation A2, FIG. 1b) and after oral administration of compound B in the form of a suspension (formulation B, FIG. 1c).
For formulation A1, 5 mL/kg body weight were administered. This corresponded to an amount of active ingredient API of 10 mg/kg.
For formulation A2, 5 mL/kg body weight were administered. This corresponded to an amount of active ingredient API of 10 mg/kg.
For formulation B, 2 mL/kg body weight were administered. […]
Plasma concentrations were determined by collecting about 0.4 mL of blood in each case via an indwelling venous catheter. […] The plasma samples were analyzed by LC/MS/MS with respect to the active ingredient 3-(2-{[4-(trifluoromethoxy)phenyl]amino}-1-[(1R,5R)-3,3,5-trimethylcyclohexyl]-1H-benzimidazol-5-yl)propanoic acid.

| Compound | bioavailability (rat, plasma, tylose suspension (formulation A2), 10 mg/kg API, relative to PEG400/water solution (formulation A1)) | bioavailability in the FRel experiment (tylose suspension (formulation B), 10.6 mg/kg API, relative to PEG400/water solution of compound A (formulation A1)) | bioavailability compared with the pure free acid (tylose suspensions, comparison in words) |
| --- | --- | --- | --- |
| C[C@H]1C[C@@H](n2c(Nc3ccc(OC(F)(F)F)cc3)nc3cc(CCC(=O)O)ccc32)CC(C)(C)C1 [Compound A, 3-(2-{[4-(trifluoromethoxy)phenyl]amino}-1-[(1R,5R)-3,3,5-trimethylcyclohexyl]-1H-benzimidazol-5-yl)propanoic acid] | 25% | – | – |
| (2E)-but-2-enedioic acid-3-(2-{[4-(trifluoromethoxy)phenyl]amino}-1-[(1R,5R)-3,3,5-trimethylcyclohexyl]-1H-benzimidazol-5-yl)propanoic acid (1:4) [Compound B] | – | 110% | distinctly higher bioavailability |
